Source: US20260083704A1, “LXR MODULATORS WITH BICYCLIC CORE MOIETY FOR TREATING DYSLIPIDEMIAS” (OrsoBio, Inc., priority 2022, published 2026)
Where two headings read alike, the source gives them in different places.

Legend:
[1] = Pharmacokinetics in mice after single oral dosing (blood/plasma and liver exposure); assay type: in vivo; conditions: for blood/plasma exposure / liver exposure / liver/blood ratio / blood/plasma exposure (below LLOQ) / liver exposure (below LLOQ): 20 mg/kg single oral dose, time point 4 h; for blood/plasma exposure (below LLOQ) / liver exposure (below LLOQ): number is the LLOQ; for oral bioavailability: single oral dose
Method: The pharmacokinetics of the compounds was assessed in mice after single dosing and oral administrations. Blood/plasma and liver exposure was measured via LC-MS.
The study design was as follows: • Animals: C57/bl6/J (Janvier) males • Diet: standard rodent chow • Dose: 20 mg/kg • Animal handling: animals were withdrawn from food at least 12 h before administration • Design: single dose oral administration, n=3 animals per group • Sacrifice: at stated time point (4, 12 or 24 h) after administration • Bioanalytics: LC-MS of liver and blood/plasma samples

LXRβ [2] = target: T1, LXRβ (Homo sapiens, UniProt P55055); experiment: LXR Gal4 reporter transient transfection assay (mammalian two-hybrid, HEK293), LXRβ; assay type: cell-based; set-up: LXRβ (amino acids 156-461); expressed in transfected cells; host or cells: HEK293; conditions: full length (FL) LXRβ, HEK293; read-out: FL-M2H Gal4β
T1 sequence (P55055 1-460): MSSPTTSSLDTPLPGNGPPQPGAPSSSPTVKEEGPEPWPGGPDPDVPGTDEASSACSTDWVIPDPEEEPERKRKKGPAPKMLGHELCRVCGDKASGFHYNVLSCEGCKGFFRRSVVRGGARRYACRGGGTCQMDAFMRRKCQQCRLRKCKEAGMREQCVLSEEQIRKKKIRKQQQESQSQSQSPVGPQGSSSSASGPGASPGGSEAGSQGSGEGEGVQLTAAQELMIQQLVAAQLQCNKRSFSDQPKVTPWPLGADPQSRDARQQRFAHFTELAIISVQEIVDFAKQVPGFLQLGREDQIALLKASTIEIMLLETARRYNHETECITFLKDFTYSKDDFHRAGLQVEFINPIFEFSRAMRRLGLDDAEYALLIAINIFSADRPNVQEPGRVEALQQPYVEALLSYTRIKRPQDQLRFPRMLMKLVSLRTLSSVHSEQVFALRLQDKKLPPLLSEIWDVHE
Summary of the method: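 Mammalian two-hybrid read-out of LXR–coactivator (SRC1) or corepressor (NCoR) interaction: firefly luciferase under GAL4 response elements, normalised via Renilla co-transfection. LXRα/β full-length or LBD fusions expressed transiently in HEK293; compounds (final DMSO ≤0.2%) given 4 h after transfection for 16 h before lysis.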

LXRβ [3] = target: T2, LXRβ (Homo sapiens, UniProt P55055); experiment: as above; assay type: cell-based; conditions: ligand-binding domain (LBD) of LXRβ, HEK293; read-out: LBD-M2H Gal4β
T2 construct: LXRβ (amino acids 156-461); expressed in transfected cells; host or cells: HEK293
T2 sequence (P55055 156-460): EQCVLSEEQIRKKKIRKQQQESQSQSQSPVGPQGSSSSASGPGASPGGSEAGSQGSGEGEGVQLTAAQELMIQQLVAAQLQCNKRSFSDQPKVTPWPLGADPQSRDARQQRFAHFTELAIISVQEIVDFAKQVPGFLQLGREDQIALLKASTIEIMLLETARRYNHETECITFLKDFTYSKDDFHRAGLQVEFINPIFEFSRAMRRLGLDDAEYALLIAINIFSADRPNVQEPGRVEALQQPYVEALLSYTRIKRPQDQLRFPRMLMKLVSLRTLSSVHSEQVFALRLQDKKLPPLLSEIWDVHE
Method: (§1) LXRα and LXRβ activity status was determined via detection of interaction with coactivator and corepressor proteins in mammalian two-hybrid experiments (M2H). For this, via transient transfection the full length (FL) proteins of LXRα (amino acids 1-447; NP005684; SEQ ID NO:1) or LXRβ-(amino acids 1-461; NP009052; SEQ ID NO:2) or the ligand-binding domains (LBD) of LXRα (amino acids 155-447 SEQ ID NO:3) or LXRβ (amino acids 156-461; SEQ ID NO:4) were expressed from pCMV-AD (Stratagene) as fusions to the transcriptional activation domain of NFkB. As cofactors, domains of either the steroid receptor coactivator 1 (SRC1; amino acids 552-887; SEQ ID NO:5) or of the corepressor NCoR (amino acids 1906-2312; NP006302; SEQ ID NO:6) were expressed as fusions to the DNA binding domain of the yeast transcription factor GAL4 (from pCMV-BD; Stratagene). Interaction was monitored via activation of a coexpressed Firefly Luciferase Reporter gene under control of a promoter containing repetitive GAL4 response elements (vector pFRLuc; Stratagene). Transfection efficiency was controlled via cotransfection of constitutively active pRL-CMV Renilla reniformis luciferase reporter (Promega). HEK293 cells were grown in minimum essential medium (MEM) with 2 mM L-glutamine and Earle's balanced salt solution supplemented with 8.3% fetal bovine serum, 0.1 mM non-essential amino acids, 1 mM sodium pyruvate, at 37° C. in 5% CO2. 3.5×10^4 cells/well were plated in 96-well cell culture plates in growth medium supplemented with 8.3% fetal bovine serum for 16-20 h to ˜90% confluency. For transfection, medium was taken off and LXR and cofactor expressing plasmids as well as the reporter plasmids are added in 30 μL OPTIMEM/well including polyethylene-imine (PEI) as vehicle. Typical amounts of plasmids transfected/well: pCMV-AD-LXR (5 ng), pCMV-BD-cofactor (5 ng), pFR-Luc (100 ng), pRL-CMV (0.5 ng). Compound stocks were prepared in DMSO, prediluted in MEM to a total volume of 120 μL, and added 4 h after addition of the transfection mixture (final vehicle concentration not exceeding 0.2%). Cells were incubated for additional 16 h, lysed for 10 min in 1×Passive Lysis Buffer (Promega) and Firefly and Renilla luciferase activities were measured sequentially in the same cell extract using buffers containing D-luciferine and coelenterazine, respectively. Measurements of luminescence were done in a BMG-luminometer.
(§2) The potencies of Compound 21/3 and its analog, Compound pre-6/3, against LXRα and LXRβ were evaluated in biochemical binding assays, cellular mammalian two-hybrid (M2H) interaction assays evaluating nuclear receptor co-repressor (NCOR) recruitment, and cellular reporter assays evaluating transcriptional activity (Table 5).

[4] = target: T3, GST-LXRβ ligand-binding domain (Homo sapiens, UniProt P55055); experiment: TR-FRETβ activity assay (NCoA3 coactivator peptide recruitment); assay type: biochemical; conditions: 1 μM 24(S)-25-epoxycholesterol prestimulation
T3 construct: amino acids 156-461; NP009052; made in house; host or cells: E. coli
T3 sequence (P55055 156-460 limits assumed): T2 sequence (P55055 156-460)
Summary of the method: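 Inverse-agonist format, with LXR prestimulated by 1 μM 24(S)-25-epoxycholesterol in pH 6.8 Tris/HCl, 240 mM KCl, BSA and Triton. Ten concentrations from 50 μM to 0.002 μM were equilibrated 1 h at 4° C with 76 nM GST-LXRβ LBD and 400 nM biotin-NCoA3 peptide. Peptide recruitment detected by 665/615 nm TR-FRET.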

LXRα = target: T4, LXRα (Homo sapiens, UniProt Q13133); experiment: LXR Gal4 reporter transient transfection assay (mammalian two-hybrid, HEK293), LXRα; assay type: cell-based; set-up: expressed in transfected cells; host or cells: HEK293; conditions: full length (FL) LXRα, HEK293; read-out: FL-M2H Gal4α
T4 sequence (Q13133 1-447): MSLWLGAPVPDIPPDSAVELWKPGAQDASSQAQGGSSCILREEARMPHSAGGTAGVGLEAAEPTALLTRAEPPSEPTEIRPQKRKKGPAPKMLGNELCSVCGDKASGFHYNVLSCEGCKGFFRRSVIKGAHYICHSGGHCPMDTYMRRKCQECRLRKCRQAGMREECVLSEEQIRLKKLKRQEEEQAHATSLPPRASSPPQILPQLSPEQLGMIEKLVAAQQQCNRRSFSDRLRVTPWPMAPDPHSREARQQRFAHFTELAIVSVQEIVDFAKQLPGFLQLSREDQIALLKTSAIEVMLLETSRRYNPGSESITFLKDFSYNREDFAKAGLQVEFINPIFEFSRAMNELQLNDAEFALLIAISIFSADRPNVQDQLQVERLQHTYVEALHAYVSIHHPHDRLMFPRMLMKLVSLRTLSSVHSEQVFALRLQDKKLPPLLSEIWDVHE
Method: as §1, §2

Row | SMILES | EC50 (LXRβ [2]) [nM] | EC50 (LXRβ [3]) [nM] | EC50 [4] [nM] | EC50 (LXRα) [nM] | further results
1 | N#Cc1sccc1-c1c(-c2cccc(C3CC3C(=O)O)c2)n(S(=O)(=O)c2ccc(Cl)cc2)c2ccc(F)cc12 (stereo not drawn) [3/24] | < 100 | < 100 |  |  | blood/plasma exposure [1]: D (<100 nM); liver exposure [1]: C (1 μM to ≤3 μM); liver/blood ratio [1]: D (>30)
2 | Cc1ccc(S(=O)(=O)n2c(-c3cccc(N4CC(C(=O)O)C4)c3)c(-c3ccsc3C#N)c3cc(F)c(F)cc32)cc1 [3/42] | < 100 | < 100 | 1000 to 10000 |  | 
3 | Cc1ccc(S(=O)(=O)n2c(-c3cccc(N4CC(C(=O)O)C4)c3)c(-c3ccsc3C#N)c3cc(F)c(Cl)cc32)cc1 [3/43] | < 100 | 100 to 1000 | 1000 to 10000 |  | 
4 | Cc1ccc(S(=O)(=O)n2c(-c3cccc(N4CC(C(=O)O)C4)c3)c(-c3ccsc3C#N)c3cc(Cl)ccc32)cc1 [3/44] | < 100 | < 100 | 1000 to 10000 |  | 
5 | Cc1ccc(S(=O)(=O)n2c(-c3cccc(N4CC(C(=O)O)C4)c3)c(-c3ccsc3C#N)c3cc(C)ccc32)cc1 [3/46] | < 100 | < 100 | 100 to 1000 |  | 
6 | Cc1ccc(S(=O)(=O)n2c(-c3cccc(-c4ccc(C(N)=O)cc4)c3)c(-c3ccsc3C#N)c3cc(F)ccc32)cc1 [6/2] | < 100 |  | 100 to 1000 | < 100 | 
7 | Cc1cccc(C#N)c1-c1c(-c2cccc(-c3ccc(C(=O)O)cc3Cl)c2)n(S(=O)(=O)c2ccc(C(F)F)cc2)c2ccc(F)cc12 [11/36] | < 100 |  | < 100 | < 100 | 
8 | N#Cc1cccc(C#N)c1-c1c(-c2cccc(-c3ccc(C(=O)O)cc3)c2)n(S(=O)(=O)c2ccc(C(F)F)cc2)c2ccc(F)cc12 [11/50] | < 100 |  | < 100 | < 100 | 
9 | N#Cc1sccc1-c1c(-c2cccc(N3CC(C(=O)O)C3)c2)n(S(=O)(=O)c2ccc(Cl)cc2)c2ccccc12 [30/7] |  | < 100 | 100 to 1000 |  | blood/plasma exposure [1]: D (<100 nM); liver exposure [1]: B (300 nM to ≤1 μM); liver/blood ratio [1]: D (>30)
10 | Cc1cccc(C#N)c1-c1c(-c2cccc(-c3ccc(C(=O)O)cc3Cl)c2)n(S(=O)(=O)c2ccc(C(F)F)cc2)c2ccc(F)cc12 [41/2, 2-chloro-3′-(3-(2-cyano-6-methylphenyl)-1-((4-(difluoro-methyl)phenyl)sulfonyl)-5-fluoro-1H-indol-2-yl)-[1,1′-biphenyl]-4-carboxylic acid] |  |  | < 100 | < 100 | 
11 | N#Cc1cccc(-c2c(-c3cccc(-c4ccc(C(=O)O)cc4Cl)c3)n(S(=O)(=O)c3ccc(C(F)F)cc3)c3ccc(F)cc23)c1 [C11/48] | < 100 |  | < 100 | < 100 | 
12 | Cc1ccc(S(=O)(=O)n2c(-c3cccc(-c4ccc(CN(C)C)cc4Cl)c3)c(-c3ccsc3C#N)c3cc(F)ccc32)cc1 [Compound 2] | < 100 |  | 100 to 1000 | < 100 | 
13 | Cc1ccc(S(=O)(=O)n2c(-c3cccc(-c4cncc(S(=O)(=O)CC(=O)O)c4)c3)c(-c3ccsc3C#N)c3ccccc32)cc1 [Compound 5] | 1000 to 10000 |  | 100 to 1000 | 1000 to 10000 | 
14 | Cc1ccc(S(=O)(=O)n2c(-c3cccc(-c4ccc(C(=O)NO)cc4)c3)c(-c3ccsc3C#N)c3cc(F)ccc32)cc1 [Compound 6] | < 100 |  | 100 to 1000 | < 100 | 
15 | Cc1ccc(S(=O)(=O)n2c(-c3cccc(-c4ccc(C(=O)NCCS(=O)(=O)O)cc4Cl)c3)c(-c3ccsc3C#N)c3cc(F)ccc32)cc1 [Compound 10] | 100 to 1000 |  | 100 to 1000 | < 100 | 
16 | Cc1ccc(S(=O)(=O)n2c(-c3cccc(-c4ccc(C(=O)O)cc4Cl)c3)c(-c3ccccc3C#N)c3cc(F)ccc32)cc1 [Compound 11] | < 100 |  | < 100 | < 100 | 
17 | Cc1ccc(S(=O)(=O)n2c(-c3cccc(-c4cc(C)c(C(=O)O)cc4Cl)c3)c(-c3ccsc3C#N)c3cc(F)ccc32)cc1 [Compound 12] | < 100 |  | 100 to 1000 | < 100 | 
18 | Cc1cc(C)c(S(=O)(=O)N(Cc2ccc(-c3cccc(S(C)(=O)=O)c3)cc2)Cc2ccc(C(F)(F)F)o2)c(C)c1 [GSK2033, reference compound] |  |  |  |  | blood/plasma exposure (below LLOQ) [1]: (14.4 ng/mL); liver exposure (below LLOQ) [1]: (9.6 ng/mL); oral bioavailability [1]: not orally bioavailable
19 | CCOC(=O)c1ccc(CN(Cc2ccc(-c3cccc(S(C)(=O)=O)c3)cc2)S(=O)(=O)c2c(C)cc(C)cc2C)o1 [SR9238, reference compound] |  |  |  |  | blood/plasma exposure (below LLOQ) [1]: below LLOQ; liver exposure (below LLOQ) [1]: below LLOQ; oral bioavailability [1]: not orally bioavailable
